Assay results: patent US11633457B2, “Pharmaceutical compositions comprising oncostatin m (OSM) antagonist derivatives and methods of use” (Boise State University, priority 2019, dated 2023)

How the values were obtained:
prostate tumor cell = settings: earlier work (U.S. Ser. No. 15/403,965); cited from earlier work
STAT3, JNK, ERK, and AKT = settings: earlier work (U.S. Ser. No. 15/403,965); cited from earlier work
[1] = test system: OSM-induced phosphorylation of STAT3 on Tyr-705 (pSTAT3); experiment: ELISA of OSM-induced phosphorylation of STAT3 (pSTAT3) with inhibitor pretreatment; type: cell-based, human; settings: for reduction in OSM induced phosphorylation of STAT3 (pSTAT3): 10, 50, and 100 μM per the method of Example 1, FIGS. 4A and 4B; for effect on OSM induced pSTAT3 phosphorylation, initial tests: OSM with or without inhibitor pretreatment, FIG. 3; for reduction of the OSM induced increase in pSTAT3 expression: initial testing, FIG. 6
Experimental: Therefore, the phosphyloration of various signaling pathways was assayed using an ELISA both with and without inhibitors and at various concentrations.
All human breast carcinoma cell lines used in this aim were purchased from the American Type Culture Collection (ATCC) or Caliper Life Sciences, and the growth of frozen cell aliquots will be initiated on a periodic basis to remove the possibility of cross-cell contamination. The cell lines were regularly tested for mycoplasma contamination by both DAPI staining and PCR. Four invasive ductal carcinoma cell lines, T47D, MCF7, MDA-MB-231 and MDA-MB-468, were used. These include the less aggressive, estrogen receptor-positive (ER+), progesterone receptor positive (PR+), HER2−, luminal T47D and MCF7-luc cell lines, as well as the triple negative breast cancer (TNBC) basal-like cell line, MDA-MB-231-LN-luc, that is metastatic in orthotopic xenografts and the less metastatic TNBC cell line MDA-MB-468. All cell lines express OSMRb, LIFRb, and gp130, as well as various levels of OSM, by RT-PCR
An enzyme-linked immunosorbent assay (ELISA) was used for analyzing initial OSM-induced phosphorylation of STAT3 on Tyr-705 (pSTAT3). T47D, MCF7, and MDA-MB-231 human breast cancer cells induced pSTAT3 upon stimulation with OSM (25 ng/ml) for 30 minutes. OSM-SMI-8 modified inhibitors were used to pretreat the cells in order to assay their ability to inhibit OSM-OSMR interactions. Pretreatment consisted of administering to the cells either 5, 10, 50, or 100 μM of the modified OSM-SMI-8 based inhibitor for 2 hours prior to administration of OSM.

[2] = test system: OSM induced secretion of VEGF; experiment: ELISA of OSM induced VEGF secretion; type: cell-based; settings: pretreatment with inhibitor; FIG. 5
Experimental: (§1) OSM-SMI-10B was also assayed for its effect on OSM induced secretions of both VEGF and IL-6 by ELISA (FIG. 5).

[3] = test system: OSM induced secretion of IL-6; experiment: ELISA of OSM induced IL-6 secretion; type: cell-based; settings: pretreatment with inhibitor; FIG. 5
Experimental: as §1

SMILES | reduction in OSM induced phosphorylation of STAT3 (pSTAT3) [1] | effect on OSM induced pSTAT3 phosphorylation, initial tests [1] | other results
O=C(O)/C(=C\C=C\c1ccccc1)c1coc(-c2nc(/C(=C/C=C/c3ccccc3)C(=O)O)co2)n1 [OSM-SMI-8] |  |  | inhibition of OSM induced prostate tumor cell detachment (prostate tumor cell): shown to inhibit; inhibition of OSM induced phosphorylation of STAT3, JNK, ERK, and AKT (STAT3, JNK, ERK, and AKT): shown to inhibit
O=C(O)/C=C/c1cc(-c2ccc3c(c2)OCO3)c(-c2ccc3c(c2)OCO3)o1 [OSM-SMI-10B] | significant reduction in pSTAT3 at every treatment level | inhibitory effect | reduction in the OSM induction of VEGF secretion [2]: large reduction; reduction in the OSM induction of IL-6 secretion [3]: large reduction
O=C(/C=C/c1cc(-c2ccc3c(c2)OCO3)c(-c2ccc3c(c2)OCO3)o1)c1ccccc1 [OSM-SMI-10C] | significant reduction in pSTAT3 at every treatment level | inhibitory effect | 
CCOC(=O)/C=C/c1cc(-c2ccc3c(c2)OCO3)c(-c2ccc3c(c2)OCO3)o1 [OSM-SMI-10D] |  | inhibitory effect | 
C(=N\Nc1ccccc1)/c1cc(-c2ccc3c(c2)OCO3)c(-c2ccc3c(c2)OCO3)o1 [OSM-SMI-10E] | significant reduction in pSTAT3 at every treatment level | inhibitory effect | 
O=C(NCc1ccccc1)c1cc(-c2ccc3c(c2)OCO3)c(-c2ccc3c(c2)OCO3)o1 [OSM-SMI-10J] |  | inhibitory effect | 
O=[N+]([O-])c1c(/C=N/Nc2ccccc2)oc(-c2ccc3c(c2)OCO3)c1-c1ccc2c(c1)OCO2 [OSM-SMI-10] |  |  | inhibition of OSM induced prostate tumor cell detachment (prostate tumor cell): shown to inhibit; inhibition of OSM induced phosphorylation of STAT3, JNK, ERK, and AKT (STAT3, JNK, ERK, and AKT): shown to inhibit
O=C(/C=C/c1ccccc1)c1cccc(N2C(=O)c3ccc(Oc4ccc5c(c4)C(=O)N(c4cccc(C(=O)/C=C/c6ccccc6)c4)C5=O)cc3C2=O)c1 [OSM-SMI-23] |  |  | reduction of the OSM induced increase in pSTAT3 expression [1]: more than about half
Cc1ccc(-c2cc(C(=O)Nc3cccc(C(=O)O)c3)c3cc(Br)ccc3n2)cc1C [OSM-SMI-26] |  |  | reduction of the OSM induced increase in pSTAT3 expression [1]: more than about half
